Our source for the GI50 and TGI values is PubChem BioAssay (NCI).

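Exposure lasted 48 hours, with cells grown in 96-well plates and compounds tested at five concentrations. GI50 = concentration required for 50% inhibition of growth. TGI: concentration producing complete growth inhibition.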

Among the test systems are SNB-75 CNS; A498 renal; MDA-MB-231 breast; HT29 colon; SF-539 CNS; SF-295 CNS; SK-MEL-2 melanoma; TK-10 renal; HOP-92 NSCLC; SN12C renal.
What all share (assay): NCI tumour cell line growth inhibition, 48 h

With `CC(C)(Oc1cccc(N2CCC[C@@H](C(=O)N(Cc3ccc(-c4cn[nH]c4)cc3)C3CC3)C2)c1)C(=O)N1CCNCC1`, the GI50 is 1.56 µM with SNB-75 CNS; 16 µM with A498 renal; 14.8 µM in the experiment with MDA-MB-231 breast; 6.3 µM in the experiment with HT29 colon; 11.4 µM with SF-539 CNS; 12.5 µM with SF-295 CNS. Also, the GI50 with SK-MEL-2 melanoma was 14.3 µM; in the experiment on TK-10 renal it was 14.8 µM; with HOP-92 NSCLC, 9.9 µM; in the experiment with SN12C renal, 12.1 µM. Also, the TGI with SNB-75 CNS stood at 18.3 µM; with A498 renal, 30.1 µM; in the experiment on MDA-MB-231 breast it was 29.7 µM; in the experiment on HT29 colon, 19.7 µM; in the experiment with SF-539 CNS, 24.2 µM; in the experiment with SF-295 CNS it was 26 µM. The TGI was 28 µM with SK-MEL-2 melanoma, 28.4 µM with TK-10 renal, 23.8 µM in the experiment with HOP-92 NSCLC and 25.3 µM with SN12C renal.

In the case of `Cc1[nH]c(N)nc(=S)c1CCCNc1ccccc1`, the TGI was more than 100 µM in the experiment with SNB-75 CNS; 92.4 µM in the experiment with A498 renal; more than 100 µM with MDA-MB-231 breast; more than 100 µM in the experiment on HT29 colon; more than 100 µM in the experiment with SF-539 CNS; more than 100 µM in the experiment with SF-295 CNS. For the same molecule, the TGI in the experiment with SK-MEL-2 melanoma, in the experiment with TK-10 renal, in the experiment on HOP-92 NSCLC and in the experiment with SN12C renal was more than 100 µM throughout.

`Oc1c(Cl)cc(Cl)c(Cl)c1Cc1c(O)c(Cl)cc(Cl)c1Cl`: the GI50 in the experiment with SNB-75 CNS is 1.65 µM; with A498 renal it was 0.419 µM; with MDA-MB-231 breast it was 1.35 µM; in the experiment on HT29 colon, 2.81 µM; in the experiment with SF-539 CNS it was 3.39 µM; in the experiment on SF-295 CNS it was 0.34 µM. The GI50 with SK-MEL-2 melanoma was 0.497 µM; in the experiment with TK-10 renal, 3.04 µM; with HOP-92 NSCLC it was 0.274 µM; with SN12C renal, 0.431 µM. Besides, the TGI was 10.6 µM with SNB-75 CNS; 7.12 µM in the experiment on A498 renal; 5.53 µM in the experiment with MDA-MB-231 breast; 12.4 µM in the experiment with HT29 colon; 18.8 µM with SF-539 CNS; 2.05 µM in the experiment on SF-295 CNS. Also, the TGI was 3.48 µM with SK-MEL-2 melanoma, 35.5 µM in the experiment on TK-10 renal, 0.682 µM in the experiment on HOP-92 NSCLC and 22.2 µM in the experiment with SN12C renal.
